Data set [1] addresses T1, Adenylate cyclase type 10 (Homo sapiens, UniProt Q96PN6).
Data set [2] has as its target Adenylate cyclase type 10 (Rattus norvegicus, UniProt Q9Z286). The data set can be described thus: Inhibition of rat ADCY10 overexpressed […] assessed as IBMX stimulated cAMP accumulation preincubated for 10 mins followed by IBMX stimulation and measured after 5 mins by ELISA. It counts as cell-based, 4-4 cell.
A short description of data set [3]: AUC(0 to 24 hrs) in CD-1 mouse at 50 mg/kg,po and measured upto 24 hrs by LC-MS analysis. More on the design: time < 24 hrs, dose 50 mg/kg, route po. The note with it: in vivo. It counts as ADME, organism-based.
A short description of data set [4]: Cmax in CD-1 mouse at 10 mg/kg,po and measured upto 24 hrs by LC-MS analysis. Details: dose 10 mg/kg, time < 24 hrs, route po. The note with it: in vivo. It counts as ADME, organism-based.
Data set [5] in a line: Tmax in CD-1 mouse at 10 mg/kg,po and measured upto 24 hrs by LC-MS analysis. As to conditions: in vivo. The data set is classed as ADME, organism-based.
A short description of data set [6]: 1-Octanol/water partition coefficient, logD of the compound at pH 7.4 by chromatographic analysis. The data set is classed as physicochemical.
Data set [7] in a line: AUC(0 to 24 hrs) in CD-1 mouse at 10 mg/kg,po and measured upto 24 hrs by LC-MS analysis. As to conditions: in vivo. The data set is classed as ADME, organism-based. More on the design: time < 24 hrs, dose 10 mg/kg, route po.
Data set [8] can be described thus: Half life in CD-1 mouse at 2 mg/kg,iv and measured upto 24 hrs by LC-MS analysis. It counts as ADME, organism-based. The note with it: in vivo.
The nature of data set [9]: Cmax in CD-1 mouse at 2 mg/kg,iv and measured upto 24 hrs by LC-MS analysis. More on the design: time < 24 hrs, dose 2 mg/kg, route iv. The note with it: in vivo. The data set is classed as ADME, organism-based.
Data set [10] in a line: Oral bioavailability in CD-1 mouse at 10 mg/kg and measured upto 24 hrs by LC-MS analysis. The data set is classed as ADME, organism-based. As to conditions: in vivo.
The nature of data set [11]: AUC(0 to 24 hrs) in CD-1 mouse at 2 mg/kg,iv and measured upto 24 hrs by LC-MS analysis. The data set is classed as ADME, organism-based. Details: dose 2 mg/kg, time < 24 hrs, route iv. The note with it: in vivo.
Data set [12] in a line: Cmax in CD-1 mouse at 50 mg/kg,po and measured upto 24 hrs by LC-MS analysis. It counts as ADME, organism-based. More on the design: time < 24 hrs, dose 50 mg/kg, route po. The note with it: in vivo.
Data set [13] is described as follows: Tmax in CD-1 mouse at 50 mg/kg,po and measured upto 24 hrs by LC-MS analysis. It counts as ADME, organism-based. As to conditions: in vivo.
The nature of data set [14]: Permeability of compound at pH 7.4 at 10 uM incubated for 3 hrs by PAMPA based LC/MS/MS analysis. As to conditions: pH 7.4, 3 h. It counts as ADME.
The nature of data set [15]: Kinetic solubility of compound by UV spectroscopy analysis. It counts as physicochemical. The note with it: read-out: Kinetic_solubility.
Data set [16] in a line: Cytotoxicity against […] at <20 uM. It counts as toxicity, cell-based. The note with it: 4-4 cell.
Data set [17] addresses T1, Adenylate cyclase type 10. The source holds these as a separate data set.
Description: Binding affinity to human recombinant His-tagged ADCY10 assessed as dissociation constant and measured for 600 sec by SPR analysis

Each structure is given as a SMILES string. pIC50, pKd: −log10 of the molar value. In brackets after ≈: the same amount, converted by molar mass.

Adenylate cyclase type 10 (Rattus norvegicus, UniProt Q9Z286), sequence (Q9Z286 whole entry): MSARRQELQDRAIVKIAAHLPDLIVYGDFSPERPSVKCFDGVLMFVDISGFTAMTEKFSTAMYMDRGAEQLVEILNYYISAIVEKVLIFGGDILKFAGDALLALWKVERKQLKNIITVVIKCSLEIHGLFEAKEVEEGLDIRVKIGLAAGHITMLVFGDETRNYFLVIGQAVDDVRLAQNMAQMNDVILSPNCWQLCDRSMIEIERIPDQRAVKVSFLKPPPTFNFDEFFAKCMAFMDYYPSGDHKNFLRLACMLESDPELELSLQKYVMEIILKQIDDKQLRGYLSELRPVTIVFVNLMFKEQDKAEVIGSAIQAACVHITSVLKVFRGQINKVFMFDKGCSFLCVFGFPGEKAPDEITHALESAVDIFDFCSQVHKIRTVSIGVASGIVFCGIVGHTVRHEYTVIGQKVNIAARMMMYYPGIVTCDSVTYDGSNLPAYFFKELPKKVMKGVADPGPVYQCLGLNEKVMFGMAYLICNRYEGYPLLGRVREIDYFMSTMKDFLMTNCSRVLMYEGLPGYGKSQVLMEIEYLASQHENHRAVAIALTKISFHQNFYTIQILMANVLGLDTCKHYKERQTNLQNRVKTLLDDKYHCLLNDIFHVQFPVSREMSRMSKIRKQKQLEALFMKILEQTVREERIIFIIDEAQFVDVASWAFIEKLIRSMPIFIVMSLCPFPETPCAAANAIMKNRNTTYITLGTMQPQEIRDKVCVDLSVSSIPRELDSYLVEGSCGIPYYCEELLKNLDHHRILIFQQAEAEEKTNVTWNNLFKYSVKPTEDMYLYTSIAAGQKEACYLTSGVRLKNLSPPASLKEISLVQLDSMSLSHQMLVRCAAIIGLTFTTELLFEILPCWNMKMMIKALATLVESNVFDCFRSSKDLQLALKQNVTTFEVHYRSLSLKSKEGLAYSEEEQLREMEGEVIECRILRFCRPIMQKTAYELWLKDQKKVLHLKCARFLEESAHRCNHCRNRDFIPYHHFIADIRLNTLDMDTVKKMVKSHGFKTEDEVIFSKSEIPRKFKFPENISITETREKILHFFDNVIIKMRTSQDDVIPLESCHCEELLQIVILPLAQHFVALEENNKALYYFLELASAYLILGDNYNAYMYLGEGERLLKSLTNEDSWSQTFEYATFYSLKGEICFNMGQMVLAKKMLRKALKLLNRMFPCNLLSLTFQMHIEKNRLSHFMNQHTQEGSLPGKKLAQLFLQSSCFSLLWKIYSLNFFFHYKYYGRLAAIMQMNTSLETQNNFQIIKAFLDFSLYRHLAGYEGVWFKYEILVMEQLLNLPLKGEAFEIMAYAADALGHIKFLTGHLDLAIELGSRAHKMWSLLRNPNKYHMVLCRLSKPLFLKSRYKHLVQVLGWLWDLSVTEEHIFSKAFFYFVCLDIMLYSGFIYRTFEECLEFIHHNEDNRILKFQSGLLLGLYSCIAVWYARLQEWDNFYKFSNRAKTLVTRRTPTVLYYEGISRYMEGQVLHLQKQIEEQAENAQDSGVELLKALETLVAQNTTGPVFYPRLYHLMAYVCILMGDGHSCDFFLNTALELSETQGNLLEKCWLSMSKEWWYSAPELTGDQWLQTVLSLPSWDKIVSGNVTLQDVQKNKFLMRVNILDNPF
T1 sequence (Q96PN6 whole entry): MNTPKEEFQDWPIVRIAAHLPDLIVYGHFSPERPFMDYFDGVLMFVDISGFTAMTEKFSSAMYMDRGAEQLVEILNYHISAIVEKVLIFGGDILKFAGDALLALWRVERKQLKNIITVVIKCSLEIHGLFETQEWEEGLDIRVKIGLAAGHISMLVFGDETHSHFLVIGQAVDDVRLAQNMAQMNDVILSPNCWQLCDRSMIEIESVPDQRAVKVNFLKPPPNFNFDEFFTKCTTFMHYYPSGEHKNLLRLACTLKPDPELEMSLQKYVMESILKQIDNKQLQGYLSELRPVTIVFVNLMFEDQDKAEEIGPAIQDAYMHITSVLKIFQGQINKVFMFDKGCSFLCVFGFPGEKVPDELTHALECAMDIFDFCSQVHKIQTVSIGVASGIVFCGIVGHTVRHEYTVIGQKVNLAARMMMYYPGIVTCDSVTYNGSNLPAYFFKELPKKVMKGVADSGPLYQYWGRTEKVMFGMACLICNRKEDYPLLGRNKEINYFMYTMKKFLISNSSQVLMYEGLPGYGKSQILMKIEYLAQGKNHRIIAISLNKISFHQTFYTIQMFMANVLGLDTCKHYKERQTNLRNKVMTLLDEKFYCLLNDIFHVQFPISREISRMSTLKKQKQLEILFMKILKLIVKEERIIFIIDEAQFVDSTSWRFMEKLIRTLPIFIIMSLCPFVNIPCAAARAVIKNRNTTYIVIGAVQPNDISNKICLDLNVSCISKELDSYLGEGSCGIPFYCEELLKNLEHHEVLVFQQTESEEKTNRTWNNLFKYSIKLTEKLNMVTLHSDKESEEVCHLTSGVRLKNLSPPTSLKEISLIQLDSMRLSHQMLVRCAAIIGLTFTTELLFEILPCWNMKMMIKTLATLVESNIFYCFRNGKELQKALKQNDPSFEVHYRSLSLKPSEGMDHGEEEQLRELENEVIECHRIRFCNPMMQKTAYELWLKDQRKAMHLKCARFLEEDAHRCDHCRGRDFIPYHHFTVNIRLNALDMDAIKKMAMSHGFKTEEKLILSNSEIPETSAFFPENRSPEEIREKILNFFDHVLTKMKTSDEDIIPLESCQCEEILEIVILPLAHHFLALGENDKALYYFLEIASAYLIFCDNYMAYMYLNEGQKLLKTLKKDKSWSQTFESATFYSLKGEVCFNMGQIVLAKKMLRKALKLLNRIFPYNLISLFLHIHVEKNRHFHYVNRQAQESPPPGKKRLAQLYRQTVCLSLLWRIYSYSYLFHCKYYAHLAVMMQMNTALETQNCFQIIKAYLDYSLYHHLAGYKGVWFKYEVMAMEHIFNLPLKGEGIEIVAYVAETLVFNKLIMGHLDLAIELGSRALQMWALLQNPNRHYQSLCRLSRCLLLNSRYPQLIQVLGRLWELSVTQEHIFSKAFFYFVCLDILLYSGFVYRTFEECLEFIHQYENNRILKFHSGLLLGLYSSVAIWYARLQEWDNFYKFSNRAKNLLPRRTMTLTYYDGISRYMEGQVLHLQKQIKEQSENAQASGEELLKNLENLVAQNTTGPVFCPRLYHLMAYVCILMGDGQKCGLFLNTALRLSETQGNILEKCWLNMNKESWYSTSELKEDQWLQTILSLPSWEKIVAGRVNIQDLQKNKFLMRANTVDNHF

As to `Nc1nc(Cl)cc(-c2nc3ccccn3c2Cc2ccccc2)n1`, in data set [1], the negative-log IC50 (pIC50) was 6.15.

Regarding `CNC(=O)c1ccccc1Cc1cn(C)nc1-c1cc(Cl)nc(N)n1`, the negative-log IC50 (pIC50) in data set [1] is 5.90.

In [1], `Cn1cc(Cc2cccc(Cl)c2)c(-c2cc(Cl)nc(N)n2)n1` showed a negative-log IC50 (pIC50) of 6.41.

Regarding `Nc1nc(Cl)cc(-c2nn(C(F)F)cc2Cc2ccccc2OCCN2CCO[C@H](CO)C2)n1`, the pIC50 in data set [2] is 7.64.

On to `COc1ccccc1Cc1cn(C)nc1-c1cc(Cl)nc(N)n1`, for which the pIC50 in data set [1] was 7.17.

Turning to `Nc1nc(Cl)cc(-c2nn(C(F)F)cc2Cc2ccccc2OCCN2CCNC(=O)C2)n1`, the negative-log IC50 (pIC50) in data set [2] is 8.26.

The compound `CNC(=O)c1cccc(Cc2cn(C)nc2-c2cc(Cl)nc(N)n2)c1` showed a negative-log IC50 (pIC50) in data set [1] of 5.73.

Regarding `CC1(O)CCN(CCOc2ccccc2Cc2cn(C(F)F)nc2-c2cc(Cl)nc(N)n2)CC1`, in data set [2], the negative logarithm of the IC50 (pIC50) was 7.78.

The compound `Cn1cc(Cc2ccc(Cl)cc2)c(-c2cc(Cl)nc(N)n2)n1` gave a negative-log IC50 (pIC50) in data set [1] of 5.59.

The compound `Cn1cc(Cc2ccccc2Cl)c(-c2cc(Cl)nc(N)n2)n1` had a negative logarithm of the IC50 (pIC50) in [1] of 7.19.

Take `Nc1nc(Cl)cc(-c2nn(C(F)F)cc2Cc2ccccc2OCCN2CCOCC2)n1`: in [2], the pIC50 is 8.72.

As to `Nc1nc(Cl)cc(-c2nn(C(F)F)cc2Cc2ccccc2)n1`, in [1], the pIC50 is 6.08.

Compound `Nc1nc(Cl)cc(-c2nn3ccccc3c2Cc2ccccc2)n1` had a pIC50 in data set [1] of 6.95.

In the case of `Nc1nc(Cl)cc(-c2nn(C(F)F)cc2Cc2ccccc2OCCN2CCO[C@@H](CO)C2)n1`, the negative-log IC50 (pIC50) in data set [2] was 7.46.

As to `Nc1nc(Cl)cc(-c2nn(C(F)F)cc2Cc2ccccc2OCCN2CCOC[C@H]2CO)n1`, the AUC is 5.46 µM·h in [3], 0.41 µM·h in data set [7] and 0.78 µM·h in data set [11]. Moreover, the Cmax in [4] amounted to 450 nM; in data set [9], 2500 nM; in data set [12], 6100 nM. Also, the Tmax in data set [5] and in data set [13] was 15 min in each case. The logD in [6] was 2.89. The same compound returned a t1/2 in data set [8] of 55.8 min. The F in data set [10] is 11%. The permeability in data set [14] was 46.3 ×10⁻⁶ cm/s. Further, the solubility kinetic in data set [15] turned out to be 79 µg/mL (≈ 160 µM). The Activity entry in data set [16] was “Non-Toxic”.

In the case of `Nc1nc(Cl)cc(-c2nn(C(F)F)cc2Cc2ccccc2OCCN2CCS(=O)(=O)CC2)n1`, the pIC50 in data set [2] was 7.84.

With `COC(=O)[C@H]1COCCN1CCOc1ccccc1Cc1cn(C(F)F)nc1-c1cc(Cl)nc(N)n1`, the pIC50 in data set [2] was 8.60.

In turn, `Nc1nc(Cl)cc(-c2nn(C(F)F)cc2Cc2ccccc2OCC(=O)N2CCOCC2)n1` gave a negative-log Kd (pKd) in data set [17] of 8.33. Further, the negative logarithm of the IC50 (pIC50) in [1] is 7.62; in [2], 7.42.

As usually defined, the pIC50 is −log10 of the IC50, conventionally taken in molar units. What is called AUC is concentration integrated over time. Broadly, the Cmax is the highest concentration seen after dosing. Usually Tmax stands for the time at which the peak concentration occurs. The term logD denotes the decadic logarithm of the distribution of all forms, ionised or not, between an organic phase and buffer at a given pH. Higher therefore signals higher lipophilicity. For orientation: pKd means the Kd on a negative log10 scale, so that one unit is a factor of ten. Low values mean a high Kd, high ones a low Kd.

(Values after ChEMBL document CHEMBL5214996, “Design, Synthesis, and Pharmacological Evaluation of Second-Generation Soluble Adenylyl Cyclase (sAC, ADCY10) Inhibitors with Slow Dissociation Rates” (J Med Chem, 2022).)
